Where only a bound is given, the exact number is not on record here.

Assay [1] addresses T1, BACE1 (Homo sapiens, UniProt P56817). Description: In Vitro Enzymatic BACE FRET (Fluorescence Resonance Energy Transfer) Assay. The format is biochemical. The conditions noted are these: read-out: BACE1 FRET assay. How it is done: In Vitro Enzymatic BACE FRET (Fluorescence Resonance Energy Transfer) Assay (Enzyme Assay Data in the Example Tables I, II, III & IV) The assay buffer used in this screen is 0.05 M acetate, pH 4.2, 10% DMSO final, 100 uM genapol (which is a nonionic detergent, below its Critical Micelle Concentration). […] This assay is effectively started by the addition of FRET substrate (50 nM) and the combination is incubated for one hour. The FRET assay is terminated with by addition of Tris buffer, which raises the pH to neutrality, and the fluorescence is determined. The FRET substrate is a peptide with commercially available fluorophore and quencher, on opposite sides of the BACE cleavage site. […]

Assay [2] deals with T1, BACE1. Description: In Vitro BACE Cell-based Assay (HEK cell assay): Aβ40 in conditioned medium of cells stably expressing Amyloid Precursor Protein, sandwich ELISA. The conditions noted are these: read-out: HEK cell assay. How it is done:
In Vitro BACE Cell-based Assay
The cell-based assay measures inhibition or reduction of Aβ40 in conditioned medium of test compound treated cells expressing amyloid precursor protein.
Cells stably expressing Amyloid Precursor Protein (APP) were plated at a density of 40K cells/well in 96 well plates (Costar). The cells were cultivated for 24 hours at 37° C. and 5% CO2 in DMEM supplemented with 10% FBS. The test compounds were then added to cells in 10-point dose response concentrations with the starting concentration being either 100 μM or 10 μM. The compounds were diluted from stock solutions in DMSO and the final DMSO concentration of the test compounds on cells was 0.1%. After 24 h of incubation with the test compounds the supernatant conditioned media was collected and the Aβ 40 levels were determined using a sandwich ELISA. The IC50 of the compound was calculated from the percent of control or percent inhibition of Aβ 40 as a function of the concentration of the test compound.
The sandwich ELISA to detect Aβ 40 was performed in 96 well microtiter plates, which were pre-treated with goat anti-rabbit IgG (Pierce). The capture and detecting antibody pair that were used to detect Aβ 40 from cell supernatants were affinity purified pAb40 (Biosource) and biotinylated 6E10 (Signet Labs Inc.), respectively. The optimal concentration for the pAb40 antibody was 3 μg/ml in Superblock/TBS (Pierce) that was supplemented with 0.05% Tween 20 (Sigma).
Cellular supernatants were incubated with the capture antibody for 3 h at 4° C., followed by 3 wash steps in TBS-tween (0.05%). The detecting antibody incubation was for 2 h at 4° C., again followed by the wash steps as described previously. The final readout of the ELISA is Time-Resolved Fluorescence (counts per minute) using Delfia reagents Streptavidin-Europium and Enhancement solutions (Perkin Elmer) and the Victor 2 multilabel counter (Perkin Elmer).
On the technique in general: ELISA stands for enzyme-linked immunosorbent assay.

The mark [3] stands for this setting: in vitro BACE FRET enzyme assay, IC50 class symbols.
Where [4] appears, read: HEK cell-based assay, Aβ40 in conditioned medium, IC50 class symbols.
The mark [5] stands for this setting: Table II, Aβ40, 24 h incubation.

T1 sequence (P56817 46-501, species assumed): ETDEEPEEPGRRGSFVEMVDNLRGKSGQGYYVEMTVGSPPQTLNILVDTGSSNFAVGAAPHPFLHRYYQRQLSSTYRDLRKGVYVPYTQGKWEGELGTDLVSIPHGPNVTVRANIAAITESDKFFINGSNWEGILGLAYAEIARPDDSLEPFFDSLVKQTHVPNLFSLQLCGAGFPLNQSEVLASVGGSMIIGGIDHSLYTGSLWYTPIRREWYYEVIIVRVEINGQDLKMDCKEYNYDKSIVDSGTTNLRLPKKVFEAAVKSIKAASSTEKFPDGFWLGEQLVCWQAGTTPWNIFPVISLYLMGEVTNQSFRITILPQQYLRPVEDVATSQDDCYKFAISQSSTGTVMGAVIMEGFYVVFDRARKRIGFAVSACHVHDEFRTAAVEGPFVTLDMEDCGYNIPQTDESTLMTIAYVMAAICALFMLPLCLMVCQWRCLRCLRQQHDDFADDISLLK

For the compound `CC(C)(O)C#Cc1ccc2c(c1)[C@@]1(COC(N)=N1)c1cc(-c3cccnc3)ccc1O2` [151b], the IC50 was less than 0.1 µM in assay [1] (Table III, IC50's in uM ranges) and less than 0.1 µM in assay [2] (Table III, IC50's in uM ranges).
As to `CC(C)C(C)(O)COc1ccc2c(c1)[C@]1(COC(N)=N1)c1cc(-c3cccnc3)ccc1O2` (some centres unmarked) [compound 867], the IC50 in assay [1] (Table IV, class symbols) was less than 0.1 µM; in assay [2] (Table IV, class symbols), less than 0.1 µM.
In the case of `CC(C)(O)COc1ccc2c(c1)[C@]1(COC(N)=N1)c1cc(-c3cccnc3F)ccc1O2` [compound 906], the IC50 in assay [1] (Table IV, class symbols) is less than 0.1 µM; in assay [2] (Table IV, class symbols), less than 0.1 µM.
For the compound `NC1=N[C@@]2(CO1)c1cc(-c3cccnc3)ccc1Oc1ncc(-c3cccnc3)cc12` [compound 203], the IC50 is 0.1 to 1 µM in assay [1] (Table III, IC50's in uM ranges) and 1 to 5 µM in assay [2] (Table III, IC50's in uM ranges).
For `CC(C)(O)C#Cc1ccc2c(c1)C1(COC(N)=N1)c1cc(C#CC(C)(C)O)ccc1O2` [compound 118], the IC50 in assay [1] (Table III, IC50's in uM ranges) is 1 to 5 µM; in assay [2] (Table III, IC50's in uM ranges) it was 1 to 5 µM.
With `CC(C)(C)C#Cc1cnc2c(c1)[C@@]1(COC(N)=N1)c1cc(Oc3ccccn3)ccc1O2` [compound 927], the IC50 in assay [1] lay in the range of 0.1 to 1 µM; in assay [2], 1 to 5 µM.
With `NC1=N[C@]2(CO1)c1cc(-c3cncnc3)ccc1Oc1c(F)cc(C3=CCOCC3)cc12` [compound 637], the IC50 in assay [1] (Table IV, class symbols) was 1 to 5 µM; in assay [2] (Table IV, class symbols), 0.1 to 1 µM.
As to `CCOC(C)(C)C#Cc1cnc2c(c1)[C@]1(COC(N)=N1)c1cc(-c3cccnc3)ccc1O2` [compound 347], the IC50 in assay [1] (setting [3]) and in assay [2] (setting [4]) was less than 0.1 µM throughout.
On to `NC1=N[C@@]2(CO1)c1cc(-c3cccnc3F)ccc1Oc1ccc(Cl)nc12` [compound 392], for which the IC50 in assay [1] (setting [3]) and in assay [2] (setting [4]) was 0.1 to 1 µM throughout.
As for `Cc1ccc(-c2cnc3c(c2)[C@]2(COC(N)=N2)c2cc(C#CC(C)(C)O)ccc2O3)cc1` [compound 579], the IC50 in assay [1] (Table IV, class symbols) was less than 0.1 µM; in assay [2] (Table IV, class symbols), less than 0.1 µM.
Consider `COc1ccncc1-c1ccc2c(c1)[C@]1(COC(N)=N1)c1cc(OCC(C)(C)C)ccc1O2` [compound 778], for which the IC50 in assay [1] and in assay [2] was 1 to 5 µM throughout.
As to `CC(C)(F)COc1cnc2c(c1)[C@]1(COC(N)=N1)c1cc(-c3cccc(C#N)c3)ccc1O2` [compound 357], the IC50 in assay [1] (setting [3]) and in assay [2] (setting [4]) was less than 0.1 µM each time.
Turning to `C[C@H]1OC(N)=N[C@@]12c1cc(OCC(C)(C)C)ccc1Oc1ccc(-c3cncnc3)cc12` [126d], the IC50 is less than 0.1 µM in assay [1] (Table III, IC50's in uM ranges) and less than 0.1 µM in assay [2] (Table III, IC50's in uM ranges).
`NC1=N[C@]2(CO1)c1cc(C#CC3(O)COC3)ccc1Oc1ccc(-c3cccnc3)cc12` [compound 685]: the IC50 in assay [1] and in assay [2] was less than 0.1 µM throughout.
On to `CC(C)(C)COc1ccc2c(c1)[C@]1(COC(N)=N1)c1cc(C#CC3CC3)cnc1O2` [compound 45], for which the IC50 in assay [1] (Table II) was less than 0.1 µM; in assay [2] (setting [5]), 0.1 to 1 µM.
In the case of `CC(C)Cc1cc2c3c(ccc2o1)Oc1ncc(-c2cncnc2)cc1[C@]31COC(N)=N1` [compound 792], the IC50 in assay [1] (Table IV, class symbols) was 0.1 to 1 µM; in assay [2] (Table IV, class symbols) it was 1 to 5 µM.
Regarding `NC1=N[C@@]2(CO1)c1cc(-c3cccnc3)ccc1Oc1ccc(N3CCOCC3)cc12` [compound 764], the IC50 in assay [1] and in assay [2] was less than 0.1 µM throughout.
Turning to `Cc1cnc(F)c(-c2ccc3c(c2)[C@@]2(COC(N)=N2)c2cc(C4CCOCC4)ncc2O3)c1` [compound 332], the IC50 in assay [1] (setting [3]) and in assay [2] (setting [4]) was less than 0.1 µM throughout.
As to `NC1=N[C@@]2(CO1)c1cc(-c3cncnc3)ccc1Oc1ccc(-c3cccc(C(F)(F)F)c3)cc12` [compound 809], the IC50 was less than 0.1 µM in assay [1] (Table IV, class symbols) and 0.1 to 1 µM in assay [2] (Table IV, class symbols).
As to `CC1(C)CC(c2cc(F)c3c(c2)[C@]2(COC(N)=N2)c2cc(-c4cncnc4)ccc2O3)=CCO1` [compound 465], the IC50 in assay [1] and in assay [2] (HEK cells) was less than 0.1 µM each time.
Take `Cc1ccc2c(c1)Oc1ccc(-c3ccccc3Cl)cc1C21COC(N)=N1` (centres unmarked) [Example 29, 2′-(2-chlorophenyl)-6′-methylspiro[1,3-oxazole-4,9′-xanthen]-2-amine]: the IC50 in assay [1] (Table 1) was greater than 5 µM; in assay [2] (Table 1, Aβ40, 24 h incubation), greater than 5 µM.
On to `COc1ccc2c(c1)[C@]1(COC(N)=N1)c1c(ccc(-c3cncnc3)c1F)O2` [compound 814], for which the IC50 in assay [1] (Table IV, class symbols) is less than 0.1 µM; in assay [2] (Table IV, class symbols), 0.1 to 1 µM.
For `CC(C)(O)C#Cc1cnc2c(c1)[C@]1(COC(N)=N1)c1cc(-c3cncnc3)ccc1O2` [compound 823], in that order: less than 0.1 µM and less than 0.1 µM.
On to `COc1ccc2c(c1)[C@@]1(COC(N)=N1)c1cc(NC(=O)c3ccc(Cl)cn3)ccc1O2` [Example 55, N-((4R)-2-amino-7′-methoxyspiro[1,3-oxazole-4,9′-xanthen]-2′-yl)-5-chloro-2-pyridinecarboxamide], for which the IC50 is less than 0.1 µM in assay [1] (Table II) and 0.1 to 1 µM in assay [2] (setting [5]).
Consider `CC(C)(C)COc1ccc2c(c1)[C@]1(COC(N)=N1)c1cc(-c3ncccn3)ccc1O2` [compound 885], for which the IC50 was in the range of 0.1 to 1 µM in assay [1] (Table IV, class symbols) and 1 to 5 µM in assay [2] (Table IV, class symbols).
For the compound `NC1=N[C@@]2(CO1)c1cc(C#CC3CC3)ccc1Oc1ccc(Oc3ccccn3)cc12` [compound 211], the IC50 in assay [1] (Table III, IC50's in uM ranges) lay in the range of 0.1 to 1 µM; in assay [2] (Table III, IC50's in uM ranges), 1 to 5 µM.
For `NC1=N[C@]2(CO1)c1cc(OCC3CCCC3)ccc1Oc1ccc(-c3cncnc3)cc12` [Example 74, (4S)-2′-(cyclopentylmethoxy)-7′-(5-pyrimidinyl)spiro[1,3-oxazole-4,9′-xanthen]-2-amine], the IC50 in assay [1] (Table II) and in assay [2] (setting [5]) was less than 0.1 µM throughout.
As for `NC1=N[C@@]2(CO1)c1cc(-c3cccnc3)ccc1Oc1cnc(N3CCNCC3)cc12` [compound 439], the IC50 in assay [1] and in assay [2] (HEK cells) was less than 0.1 µM in each case.
As for `NC1=N[C@@]2(CO1)c1cc(Br)ccc1Oc1ccc(Oc3ccccn3)cc12` [compound 206], the IC50 in assay [1] (Table III, IC50's in uM ranges) is greater than 5 µM; in assay [2] (Table III, IC50's in uM ranges), 0.1 to 1 µM.
On to `COC(C)(C)C#Cc1cnc2c(c1)[C@@]1(COC(N)=N1)c1cc(-c3cccnc3)ccc1O2` [compound 719], for which the IC50 in assay [1] and in assay [2] was 0.1 to 1 µM throughout.
Turning to `CCC(C)(O)COc1ccc2c(c1)[C@]1(COC(N)=N1)c1cc(-c3cccnc3)ccc1O2` (some centres unmarked) [compound 770], the IC50 in assay [1] and in assay [2] was less than 0.1 µM in each case.
In the case of `COC(=O)/C=C/c1ccc2c(c1)[C@]1(COC(N)=N1)c1cc(-c3cccnc3)ccc1O2` [compound 947], the IC50 in assay [1] and in assay [2] was 0.1 to 1 µM each time.
With `CC(C)(C)COc1ccc2c(c1)[C@@]1(COC(N)=N1)c1cc(-c3ccc(OCC4CC4)nc3)cnc1O2` [compound 741], the IC50 in assay [1] and in assay [2] was less than 0.1 µM in each case.
For `NC1=N[C@@]2(CO1)c1cc(-c3cccnc3N3CCOCC3)ccc1Oc1cnc(N3CCOCC3)cc12` [compound 336], the values for the IC50 in assay [1] (setting [3]) and in assay [2] (setting [4]) were less than 0.1 µM and 0.1 to 1 µM, respectively.
For the compound `NC1=N[C@@]2(CO1)c1cc(-c3ccccc3)ccc1Oc1ncc(C3=CCOCC3)cc12` [compound 580], the IC50 in assay [1] (Table IV, class symbols) is less than 0.1 µM; in assay [2] (Table IV, class symbols), less than 0.1 µM.
For `NC1=N[C@@]2(CO1)c1cc(-c3cccnc3)ccc1Oc1ccc(-c3ccsc3)cc12` [compound 672], the IC50 in assay [1] and in assay [2] was less than 0.1 µM in each case.
For `NC1=N[C@]2(CO1)c1cc(-c3ccc(O)cc3)ccc1Oc1ccc(-c3cncnc3)cc12` [compound 890], the IC50 in assay [1] (Table IV, class symbols) was less than 0.1 µM; in assay [2] (Table IV, class symbols) it was 0.1 to 1 µM.
Turning to `CC(C)(C)COc1ccc2c(c1)[C@]1(COC(N)=N1)c1cc(C(=O)NC3CC3)ccc1O2` [compound 798], the IC50 in assay [1] (Table IV, class symbols) was less than 0.1 µM; in assay [2] (Table IV, class symbols) it was less than 0.1 µM.
`CC(C)(C)COc1ccc2c(c1)[C@]1(COC(N)=N1)c1cc(N3CCOCC3)ccc1O2` [Example 43, (4S)-2′-(2,2-dimethylpropoxy)-7′-(4-morpholinyl)spiro[1,3-oxazole-4,9′-xanthen]-2-amine]: the IC50 in assay [1] (Table II) and in assay [2] (setting [5]) was 0.1 to 1 µM each time.
Take `NC1=N[C@]2(CO1)c1cc(CC(=O)O)ccc1Oc1ccc(-c3cncnc3)cc12` [compound 751]: the IC50 in assay [1] was 0.1 to 1 µM; in assay [2], greater than 5 µM.

These data come from US8426447B2, “Spiro-tricyclic ring compounds as beta-secretase modulators and methods of use” (Amgen Inc., priority 2008, dated 2013).
